Test results from US11414406B2, “Antagonists of the muscarinic acetylcholine receptor M4” (Vanderbilt University, priority 2018, dated 2022).
Where two headings read alike, the source gives them in different places.

Target: T1, Human M4 (Homo sapiens, UniProt P08173)
T1 construct: expressed in transfected cells
T1 sequence (P08173 1-479): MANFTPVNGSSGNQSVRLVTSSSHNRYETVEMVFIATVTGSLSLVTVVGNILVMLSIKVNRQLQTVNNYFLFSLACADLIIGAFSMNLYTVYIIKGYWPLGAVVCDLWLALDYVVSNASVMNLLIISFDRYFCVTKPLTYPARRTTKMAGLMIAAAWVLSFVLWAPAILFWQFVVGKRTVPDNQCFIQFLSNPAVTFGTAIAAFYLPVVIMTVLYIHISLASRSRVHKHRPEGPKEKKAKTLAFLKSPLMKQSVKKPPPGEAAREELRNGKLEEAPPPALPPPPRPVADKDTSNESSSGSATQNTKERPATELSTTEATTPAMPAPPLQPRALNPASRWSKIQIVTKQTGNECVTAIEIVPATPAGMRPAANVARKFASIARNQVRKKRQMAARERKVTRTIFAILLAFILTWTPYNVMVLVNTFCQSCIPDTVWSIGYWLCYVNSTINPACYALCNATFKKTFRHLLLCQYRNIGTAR
Test: mAChR M4 cell-based functional assay (calcium flux, decrease of EC80 acetylcholine response)
Details: for IC50: decrease of response to EC80 acetylcholine
Method: Human M4 cDNA, along with the chimeric G protein Gqi5, were transfected into Chinese hamster ovary (CHO-K1) cells purchased from the American Type Culture Collection using Lipofectamine2000. M4/Gqi5/CHO cells were grown in Ham's F-12 medium containing 10% heat-inactivated fetal bovine serum (FBS), 20 mM HEPES, 500 μg/mL G418 sulfate, and 200 μg/mL Hygromycin B.
For high throughput measurement of agonist-evoked increases in intracellular calcium, CHO-K1 cells stably expressing muscarinic receptors were plated in growth medium lacking G418 and hygromycin at 15,000 cells/20 μL/well in Greiner 384-well black-walled, tissue culture (TC)-treated, clear-bottom plates (VWR). Cells were incubated overnight at 37° C. and 5% CO2. The next day, cells were washed using an ELX 405 (BioTek) with assay buffer; the final volume was then aspirated to 20 μL. Next, 20 μL of a 2.3 μM stock of Fluo-4/acetoxymethyl ester (Invitrogen, Carlsbad, Calif.), prepared as a 2.3 mM stock in DMSO and mixed in a 1:1 ratio with 10% (w/v) Pluronic F-127 and diluted in assay buffer, was added to the wells and the cell plates were incubated for 50 min at 37° C. and 5% CO2. Dye was removed by washing with the ELX 405 and the final volume was aspirated to 20 μL. Compound master plates were formatted in a 10 point concentration-response curve (CRC) format (1:3 dilutions) in 100% DMSO with a starting concentration of 10 or 1 mM using a BRAVO liquid handler (Agilent). Test compound CRCs were then transferred to daughter plates (240 nL) using the Echo acoustic plate reformatter (Labcyte, Sunnyvale, Calif.) and then diluted into assay buffer (40 μL) to a 2× stock using a Thermo Fisher Combi (Thermo Fisher Scientific, Waltham, Mass.).
Calcium flux was measured using the Functional Drug Screening System (FDSS) 6000 or 7000 (Hamamatsu Corporation, Tokyo, Japan) as an increase in the fluorescent static ratio. Compounds were applied to cells (20 μL, 2×) using the automated system of the FDSS at 2 seconds into the protocol and the data were collected at 1 Hz. At 143 s, 10 μL of an EC20 concentration of the muscarinic receptor agonist acetylcholine was added (5×), followed by the addition of 12 μL of an EC80 concentration of acetylcholine at the 268 s time point (5×). Agonist activity was analyzed as a concentration-dependent increase in calcium mobilization upon compound addition. Positive allosteric modulator activity was analyzed as a concentration-dependent increase in the EC20 acetylcholine response. Antagonist activity was analyzed as a concentration-dependent decrease in the EC80 acetylcholine response; for the purposes of the tables herein, an IC50 (inhibitory concentration 50) was calculated as a concentration-dependent decrease of the response elicited by an EC80 concentration of acetylcholine. Concentration-response curves were generated using a four-parameter logistical equation in XLFit curve fitting software (HMS, Bridgewater, N.J.) for Excel (Microsoft, Redmond, Wash.) or Prism (GraphPad Software, Inc., San Diego, Calif.) or the Dotmatics software platform (Dotmatics, Bishop's Stortford, UK).
Compounds were synthesized as described above. Activity (IC50 and Emin) was determined in the inAChR M4 cell-based functional assay as described above and the data are shown in Table 2. The compound numbers correspond to the compound numbers used in Examples 1 and 2 and Tables 1 and 2.

[1] = M4/Gqi5/CHO-K1 cells, % ACh maximum at 30 μM, read-out: Emin (% ACh maximum at 30 μM)

SMILES | remaining activity at 30 µM [1] [%] | IC50 (M4/Gqi5/CHO-K1 cells) [nM] | remaining activity at 30 µM (CHO-K1, read-out: Emin (% ACh maximum at 30 μM)) [%]
Fc1cccc(-c2ccc(N[C@H]3[C@@H]4CN(CC5CCOCC5)C[C@@H]43)nn2)c1F [Compound 31, (1R,5S,6s)-N-[6-(2,3-difluorophenyl)pyridazin-3-yl]-3-(tetrahydropyran-4-ylmethyl)-3-azabicyclo[3.1.0]hexan-6-amine] | 27 |  | 
Cc1nn(C)cc1-c1ccc(N[C@H]2[C@@H]3CN(CC(C)C(C)(C)C)C[C@@H]32)nn1 (stereo partly drawn) [Compound 3, (1R,5S,6s)-N-[6-(1,3-dimethylpyrazol-4-yl)pyridazin-3-yl]-3-(2,3,3-trimethylbutyl)-3-azabicyclo[3.1.0]hexan-6-amme] | 24 |  | 
Cn1cc2cc(-c3ccc(N[C@H]4[C@@H]5CN(CC6CCOCC6)C[C@@H]54)nn3)ccc2n1 [Compound 18, (1R,5S,6s)-N-[6-(2-methylindazol-5-yl)pyridazin-3-yl]-3-(tetrahydropyran-4-ylmethyl)-3-azabicyclo[3.1.0]hexan-6-amine] | 27 |  | 
CC(C)(C)CCN1C[C@@H]2[C@H](C1)[C@H]2NCc1ccc(-c2cc(F)ccc2Cl)nn1 [Compound 5, (1R,5S,6s)-N-((6-(2-chloro-5-fluoro-phenyl)pyridazin-3-yl)methyl)-3-(3,3-dimethylbutyl)-3-azabicyclo[3.1.0]hexan-6-amine] | 20.4 |  | 
CC(C)(C)CCN1C[C@@H]2[C@H](C1)[C@H]2Nc1ccc(-c2cc(F)ccc2Cl)nn1 [Compound 27, (1R,5S,6s)-N-[6-(2-chloro-5-fluoro-phenyl)pyridazin-3-yl]-3-(3,3-dimethylbutyl)-3-azabicyclo[3.1.0]hexan-6-amine] | 4 | 25.5 | 
c1cc2c(cc1-c1ccc(N[C@H]3[C@@H]4CN(CC5CCOCC5)C[C@@H]43)nn1)OCO2 [Compound 30, (1R,5S,6s)-N-[6-(1,3-benzodioxol-5-yl)pyridazin-3-yl]-3-(tetrahydropyran-4-ylmethyl)-3-azabicyclo[3.1.0]hexan-6-amine] | 16 |  | 
Cc1nn(C)cc1-c1ccc(N[C@H]2[C@@H]3CN(CCC(C)(C)C)C[C@@H]32)nn1 [Compound 1, (1R,5S,6s)-3-(3,3-dimethylbutyl)-N-[6-(1,3-dimethylpyrazol-4-yl)pyridazin-3-yl]-3-azabicyclo[3.1.0]hexan-6-amine] |  | 280 | 4.8
c1ccc(-c2ccc(N[C@H]3[C@@H]4CN(CC5CCOCC5)C[C@@H]43)nn2)cc1 [Compound 28, (1R,5S,6s)-N-(6-phenylpyridazin-3yl)-3-(tetrahydropyran-4-ylmethyl)-3-azabicyclo[3.1.0]hexan-6-amine] | 28 |  | 
Clc1ccccc1-c1ccc(N[C@H]2[C@@H]3CN(CC4CCOCC4)C[C@@H]32)nn1 [Compound 11, (1S,5R,6s)-N-[6-(2-chlorophenyl)pyridazin-3-yl]-3-(tetrahydropyran-4-ylmethyl)-3-azabicyclo[3.1.0]hexan-6-amine] | 11 | 2960 | 
Fc1cccc(CN2C[C@@H]3[C@H](C2)[C@H]3Nc2ccc(-c3cc(F)ccc3Cl)nn2)c1 [Compound 22, (1R,5S,6s)-N-[6-(2-chloro-5-fluoro-phenyl)pyridazin-3-yl]-3-[(3-fluorophenyl)methyl]-3-azabicyclo[3.1.0]hexan-6-amine] | 29 |  | 
Fc1ccc(Cl)c(-c2ccc(N[C@H]3[C@@H]4CN(Cc5ccc6c(c5)OCO6)C[C@@H]43)nn2)c1 [Compound 25, (1R,5S,6s)-3-(1,3-benzodioxol-5-ylmethyl)-N-[6-(2-chloro-5-fluoro-phenyl)pyridazin-3-yl]-3-azabicyclo[3.1.0]hexan-6-amine] | 6 | 889 | 
Fc1ccc(Cl)c(-c2ccc(CN[C@H]3[C@@H]4CN(CC5CCCCC5)C[C@@H]43)nn2)c1 [Compound 6, (1R,5S,6s)-N-((6-(2-chloro-5-fluoro-phenyl)pyridazin-3-yl)methyl)-3-(cyclohexylmethyl)-3-azabicyclo[3.1.0]hexan-6-amine] | 17.8 |  | 
Fc1cccc(Cl)c1-c1ccc(N[C@H]2[C@@H]3CN(CC4CCOCC4)C[C@@H]32)nn1 [Compound 15, (1R,5S,6s)-N-[6-(2-chloro-6-fluoro-phenyl)pyridazin-3-yl]-3-(tetrahydropyran-4-ylmethyl)-3-azabicyclo[3.1.0]hexan-6-amine] | 14 | 3180 | 
Fc1ccc(Cl)c(-c2ccc(N[C@H]3[C@@H]4CN(CC5CCOCC5)C[C@@H]43)nn2)c1 [Compound 12, (1R,5S,6s)-N-[6-(2-chloro-5-fluoro-phenyl)pyridazin-3-yl]-3-(tetrahydropyran-4-ylmethyl)-3-azabicyclo[3.1.0]hexan-6-amine] | 8 | 1110 | 
Fc1ccc(F)c(-c2ccc(N[C@H]3[C@@H]4CN(Cc5ccccc5F)C[C@@H]43)nn2)c1 [Compound 33, (1R,5S,6s)-N-[6-(2,5-difluorophenyl)pyridazin-3-yl]-3-[(2-fluorophenyl)methyl]-3-azabicyclo[3.1.0]hexan-6-amine] | 39 |  | 
Fc1cccc(-c2ccc(N[C@H]3[C@@H]4CN(CC5CCOCC5)C[C@@H]43)nn2)c1 [Compound 9, (1R,5S,6s)-N-[6-(3-fluorophenyl)pyridazin-3-yl]-3-(tetrahydropyran-4-ylmethyl)-3-azabicyclo[3.1.0]hexan-6-amine] | 25 |  | 
Fc1ccc(F)c(-c2ccc(N[C@H]3[C@@H]4CN(CC5CCOCC5)C[C@@H]43)nn2)c1 [Compound 16, (1R,5S,6s)-N-[6-(2,5-difluorophenyl)pyridazin-3-yl]-3-(tetrahydropyran-4-ylmethyl)-3-azabicyclo[3.1.0]hexan-6-amine] | 28 |  | 
Fc1ccc(-c2ccc(N[C@H]3[C@@H]4CN(CC5CCOCC5)C[C@@H]43)nn2)c(F)c1 [Compound 32, (1R,5S,6s)-N-[6-(2,4-difluorophenyl)pyridazin-3-yl]-3-(tetrahydropyran-4-ylmethyl)-3-azabicyclo[3.1.0]hexan-6-amine] | 40 |  | 
c1cc(C2CC2)ncc1-c1ccc(N[C@H]2[C@@H]3CN(CC4CCOCC4)C[C@@H]32)nn1 [Compound 21, (1R,5S,6s)-N-[6-(6-cyclopropyl-3-pyridyl)pyridazin-3-yl]-3-(tetrahydropyran-4-ylmethyl)-3-azabicyclo[3.1.0]hexan-6-amine] | 30 |  | 
Fc1ccccc1-c1ccc(N[C@H]2[C@@H]3CN(CC4CCOCC4)C[C@@H]32)nn1 [Compound 8, (1R,5S,6s)-N-[6-(2-fluorophenyl)pyridazin-3-yl]-3-(tetrahydropyran-4-ylmethyl)-3-azabicyclo[3.1.0]hexan-6-amine] | 38 |  | 
Fc1cccc(-c2ccc(N[C@H]3[C@@H]4CN(CC5CCOCC5)C[C@@H]43)nn2)c1Cl [Compound 13, (1R,5S,6s)-N-[6-(2-chloro-3-fluoro-phenyl)pyridazin-3-yl]-3-(tetrahydropyran-4-ylmethyl)-3-azabicyclo[3.1.0]hexan-6-amine] | 8 | 1850 | 
